Patent US10745703B2, “Compositions and methods for treating cancer” (CASE WESTERN RESERVE UNIVERSITY, priority 2009, dated 2020)
Entries after “also recorded” stand apart in the source; their conditions may differ. Where a SMILES comes first, the peptide text is derived from it. The star is where a group is joined. Decanoyl = CCCCCCCCCC(=O)*; Cbz = O=C(OCc1ccccc1)*; CH2Cl = ClC*

What was measured:
Assay type in all cases: cell-based, human
[1] = test system: U-87 MG cells; assay: Scratch wound assay, U-87 MG cells
Description: U-87 MG cells were infected with control or PTPμ shRNA lentivirus. After three days, confluent monolayers of cells were scratched with a 20 μl pipette tip to induce a wound. The wounded edges were imaged using a Nikon (Tokyo, Japan) TE200 inverted microscope and Spot RT digital camera and image acquisition software (Diagnostic Instruments, Inc., Sterling Heights, Mich.) Images were collected with a 10× objective 0, 6, 24, and 48 hours after wounding. Images were quantitated using MetaMorph software (Molecular Devices, Downingtown, Pa.) by measuring the width of the wound at each time point. The difference between the width of the wound at the zero time point and the time point being analyzed was divided by two. This value reflects the distance migrated by the leading edge of one side of the wound during a given time interval. Replicates were averaged and plotted using Microsoft Excel. Error bars indicate standard error. Data were analyzed for statistical significance using an unpaired student's t-test. Rac1 inhibition studies were performed using a Rac1-specific inhibitor from Calbiochem (Gibbstown, N.J.) (J Biol Chem. 2005;280:37516-37525; Proc Natl Acad Sci USA. 2004;101:7618-7623). For morphological studies, the inhibitor was dissolved in water and added at a final concentration of 100 μM just prior to scratching the cells. Cells were analyzed after 6 hours. For migration studies, the inhibitor was dissolved in water and added at a final concentration of 50 μM just prior to scratching the cells. Cells were analyzed after 24 hours.

[2] = test system: PTPμ; assay: Proteolytic processing of PTPμ in LN-229 cells treated with protease inhibitors (biotinylation, immunoprecipitation, immunoblot); conditions: for endogenous PTPμ PΔE and ICD fragments: parental LN-229 cells, immunoprecipitation SK-18, immunoblot SK-7; for PTPμ PΔE and ICD fragments: total lysates of LN-229 cells overexpressing PTPμ or PTPμ-GFP; for furin cleavage of PTPμ (full-length PTPμ at the cell surface, P-subunit formation): LN-229 cells, cell surface biotinylation, inhibitor 50 μM, 17-20 hours
Description: Cell lysates were prepared and immunoblotted using normalized samples of ˜20 μg protein detected with monoclonal antibodies recognizing the intracellular segment of PTPμ (SK-7 or SK-18) (Mol Cell Biochem 1993; 127-128: 131-41). An antibody against vinculin was from Sigma-Aldrich (St. Louis, Mo.). The GFP antibody JL-8 was from Clontech (Mountain View, Calif.).
Cell surface biotinylation was performed using a Sulfo-NHS-SS-Biotin Kit (Pierce). Biotinylated proteins were isolated and resolved by SDS-PAGE on 6% gels followed by immunoblotting with an antibody to PTPμ (SK-18) as described (Mol Cancer Res 2008; 6: 1106-13).
(§1) The Furin Inhibitor I (Dec-RVKR-CMK, Calbiochem, Gibbstown, N.J.) was used at 50 μM for 17-20 hours. The γ-secretase inhibitors DAPT (Sigma-Aldrich) and L-685,458 (Sigma-Aldrich) were used at 2 μM and 5 μM, respectively, for 17-20 hours. The proteasome was inhibited with MG132 (Sigma-Aldrich) at 20 μM or epoxomicin (Calbiochem) at 5 μM for 4 hours. GM6001 (Calbiochem) was used at 50 μM as an MMP/ADAM inhibitor for 17-20 hours. Inhibitors were reconstituted in DMSO, which was used as a vehicle control. […] The PTPμ wedge peptide and a scrambled control peptide were synthesized to include a membrane-penetrant Tat-derived sequence at the C-terminus to promote cellular uptake. Peptides synthesized by Genemed Synthesis (San Antonio, Tex.) or GenScript (Piscataway, N.J.) were reconstituted in water and added to cells at a final concentration of 5 μM.
Cells were grown to confluence, treated with inhibitors, and lysed in 20 mM Tris-HCL, pH 7.5, 1% Triton X-100, 150 mM NaCl, 2 mM EDTA, 1 mM benzamidine, aprotinin (5 μg/ml), leupeptin (5 μg/ml) and pepstatin (1 μg/ml). Samples were sonicated and centrifuged at 10,000 rpm for 5 minutes. Immunoprecipitations from ˜400 μg total protein were performed using a PTPμ antibody (SK-18) and resolved by SDS-PAGE on 8% gels followed by immunoblotting with an antibody to PTPμ (SK-7).

[3] = test system: LN-229 cells; assay: Scratch wound assay, LN-229 cells; conditions: for PTPμ fragment-mediated cell migration: LN-229 cells, DAPT 2 μM, GM6001 50 μM; for migration of LN-229 cells: peptide 5 μM, versus scrambled control, 24 hours
Description: Confluent monolayers of cells were scratched to induce a wound and analyzed by microscopy for the distance migrated by the leading edge of the wound at 0 and 24 hrs.
as §1

## CCN(CC)CCCC(C)Nc1nc(C)cc(Nc2ccc3nc(C)cc(N)c3c2)n1 (racemic) [Rac1 inhibitor]
[1]; U-87 MG cells with PTPμ shRNA #1, inhibitor 100 μM, 6 hours
  induction of lamellipodia in cells with reduced PTPμ expression: prevented the induction of lamellipodia; also recorded: blocked the formation of PTPμ-induced lamellipodia
[1]; U-87 MG cells with PTPμ shRNA, inhibitor 50 μM, 24 hours
  migration induced by the loss of PTPμ (distance migrated by leading edge): significantly suppressed the migration; also recorded: significantly reduced the migration
[1]; control shRNA U-87 MG cells, inhibitor 100 μM, 6 hours
  effect on morphology of control U-87 MG cells: no effect on morphology

## C[C@H](NC(=O)Cc1cc(F)cc(F)c1)C(=O)N[C@H](C(=O)OC(C)(C)C)c1ccccc1 [DAPT]
[2]
  endogenous PTPμ PΔE and ICD fragments: stabilized a fragment that corresponds by molecular weight to a membrane-tethered truncated P-subunit termed PΔE
  PTPμ PΔE and ICD fragments: accumulation of PTPμ PΔE and ICD; also recorded: stabilized
[3]
  PTPμ fragment-mediated cell migration: increased migration

## CCCCCCCCCC(=O)N[C@@H](CCCN=C(N)N)C(=O)N[C@H](C(=O)N[C@@H](CCCCN)C(=O)N[C@@H](CCCN=C(N)N)C(=O)CCl)C(C)C [Furin Inhibitor I, Dec-RVKR-CMK] (Decanoyl-RVKR-CH2Cl)
[2]; listed as inhibitor of furin
  furin cleavage of PTPμ (full-length PTPμ at the cell surface, P-subunit formation): prevented P-subunit formation
[2]; listed as inhibitor of furin activity
  furin cleavage of PTPμ (full-length PTPμ at the cell surface, P-subunit formation): accumulation of full-length PTPμ (200 kDa) at the cell surface

## CNC(=O)[C@H](Cc1c[nH]c2ccccc12)NC(=O)[C@@H](CC(=O)NO)CC(C)C [GM6001]
[2]
  endogenous PTPμ PΔE and ICD fragments: limited the formation of PTPμ PΔE and ICD fragments
[3]
  PTPμ fragment-mediated cell migration: decreased migration

## CC(C)C[C@H](NC(=O)[C@H](Cc1ccccc1)C[C@@H](O)[C@H](Cc1ccccc1)NC(=O)OC(C)(C)C)C(=O)N[C@@H](Cc1ccccc1)C(N)=O [L685,458, L-685,458]
[2]
  PTPμ PΔE and ICD fragments: accumulation of PTPμ PΔE and ICD; also recorded: stabilized

## CC(C)C[C@@H](C=O)NC(=O)[C@H](CC(C)C)NC(=O)[C@H](CC(C)C)NC(=O)OCc1ccccc1 [MG132] (Cbz-Leu-Leu-Leu-aldehyde)
[2]
  endogenous PTPμ PΔE and ICD fragments: accumulation of both PΔE and a soluble fragment termed PTPμ intracellular domain (ICD); also recorded: stabilized
  PTPμ PΔE and ICD fragments: accumulation of PTPμ PΔE and ICD; also recorded: stabilized

## CC[C@H](C)[C@H](NC(=O)[C@H]([C@@H](C)CC)N(C)C(C)=O)C(=O)N[C@H](C(=O)N[C@@H](CC(C)C)C(=O)[C@@]1(C)CO1)[C@@H](C)O [epoxomicin]
[2]
  PTPμ PΔE and ICD fragments: Stabilization of PTPμ ICD; also recorded: stabilized

## PTPμ wedge peptide: Peptide targeting the helix-loop-helix wedge domain of PTPμ with a membrane-penetrant Tat-derived sequence at the C-terminus (likely SEQ ID NO: 5) (DLLQHITQMKCAEGYGFKEEYESGRKKRRQRRRC)
[3]
  migration of LN-229 cells: significantly reduced migration
[3]; listed as PTPμ wedge inhibitor peptide
  migration of LN-229 cells: statistically significant difference in migration
